Results from ChEMBL document CHEMBL1135176, “Combinatorial synthesis and biological evaluation of isoxazole-based libraries as antithrombotic agents” (2002).

What was measured:
Mus musculus [1] = test: In vivo antithrombotic activity in Swiss mice was determined when the compound was administered at 30 umol/kg orally 1 hour prior to challenge; type: functional
Mus musculus [2] = test: In vivo increase in the bleeding time was determined when administered at 30 umol/kg orally 1 hour prior to challenge; type: functional

| Structure (SMILES) | Protection (Mus musculus [1]) | Increase (Mus musculus [2]) |
| --- | --- | --- |
| NCCCCC(C(N)=O)N(Cc1ccc([N+](=O)[O-])cc1)Cc1cc(-c2ccccc2)on1 (configuration not stated) | 30% | – |
| NC(=O)C(Cc1c[nH]cn1)N(Cc1ccccc1)Cc1cc(-c2ccccc2)on1 (configuration not stated) | 50% | 81% |
| Cc1ccc(-c2cc(CN(Cc3ccccc3)C(Cc3ccc(O)cc3)C(N)=O)no2)cc1 (configuration not stated) | 60% | 20% |
| NC(=O)C(Cc1ccc(O)cc1)N(Cc1ccc(Br)cc1)Cc1cc(-c2ccccc2)on1 (configuration not stated) | 20% | – |
| CC(C)=CCC(C(N)=O)N(Cc1ccccc1)Cc1cc(-c2ccccc2)on1 (configuration not stated) | 30% | – |
| Cc1ccc(-c2cc(CN(Cc3cccc([N+](=O)[O-])c3)C(Cc3c[nH]cn3)C(N)=O)no2)cc1 (configuration not stated) | 60% | 40% |
| NC(=O)C(Cc1ccccc1)N(Cc1ccccc1)Cc1cc(-c2ccccc2)on1 (configuration not stated) | 30% | – |
| N#Cc1ccc(CN(Cc2cc(-c3ccccc3Cl)on2)C(Cc2ccc(O)cc2)C(N)=O)cc1 (configuration not stated) | 40% | – |
| Cc1ccc(-c2cc(CN(Cc3ccccc3)C(CCCN=C(N)N)C(N)=O)no2)cc1 (configuration not stated) | 10% | – |
| Cc1ccc(-c2cc(CN(Cc3cccc(C)c3)C(Cc3ccccc3)C(N)=O)no2)cc1 (configuration not stated) | 50% | 0% |
| Cc1ccc(CN(Cc2cc(-c3ccccc3)on2)C(Cc2c[nH]cn2)C(N)=O)cc1 (configuration not stated) | 40% | – |
| NC(=O)CCC(C(N)=O)N(Cc1ccc(Br)cc1)Cc1cc(-c2ccccc2Cl)on1 (configuration not stated) | 20% | – |
| NC(=O)C(Cc1ccccc1)N(Cc1ccccc1)Cc1cc(-c2ccccc2Cl)on1 (configuration not stated) | 30% | – |
| N#Cc1ccc(CN(Cc2cc(-c3ccccc3)on2)C(CCC(N)=O)C(N)=O)cc1 (configuration not stated) | 70% | 62% |
| NC(=O)C(CO)N(Cc1ccccc1)Cc1cc(-c2ccccc2)on1 (configuration not stated) | 60% | 58% |
| Cc1ccc(-c2cc(CN(CC(N)=O)Cc3ccccc3)no2)cc1 | 20% | – |
| NC(=O)C(Cc1ccccc1)N(Cc1ccc(Br)cc1)Cc1cc(-c2ccccc2)on1 (configuration not stated) | 20% | – |
| Cc1ccc(-c2cc(CN(Cc3ccc(Br)cc3)C(CCCN=C(N)N)C(N)=O)no2)cc1 (configuration not stated) | 40% | – |
| Cc1ccc(-c2cc(CN(Cc3ccc(C#N)cc3)C(CCCCN)C(N)=O)no2)cc1 (configuration not stated) | 40% | – |
| Cc1ccc(-c2cc(CN(Cc3ccc(C#N)cc3)C(Cc3ccc(O)cc3)C(N)=O)no2)cc1 (configuration not stated) | 20% | – |
| NC(=O)C(Cc1ccccc1)N(Cc1ccc([N+](=O)[O-])cc1)Cc1cc(-c2ccccc2Cl)on1 (configuration not stated) | 20% | – |
| N#Cc1ccc(CN(Cc2cc(-c3ccccc3Cl)on2)C(Cc2ccccc2)C(N)=O)cc1 (configuration not stated) | 50% | 0% |
| N=C(N)NCCCC(C(N)=O)N(Cc1ccc(Br)cc1)Cc1cc(-c2ccccc2)on1 (configuration not stated) | 80% | 25% |

| Structure (SMILES) | Protection (Mus musculus [1]) | Increase (Mus musculus [2]) |
| --- | --- | --- |
| Cc1ccc(-c2cc(CN(Cc3ccccc3)C(CCCCN)C(N)=O)no2)cc1 (configuration not stated) | 40% | – |
| N#Cc1ccc(CN(Cc2cc(-c3ccccc3Cl)on2)C(CO)C(N)=O)cc1 (configuration not stated) | 10% | – |
| CC(C)=CCC(C(N)=O)N(Cc1ccc(C#N)cc1)Cc1cc(-c2ccccc2)on1 (configuration not stated) | 20% | – |
| Cc1ccc(-c2cc(CN(Cc3ccccc3)C(CO)C(N)=O)no2)cc1 (configuration not stated) | 60% | 79% |
| NC(=O)C(Cc1ccc(O)cc1)N(Cc1ccc(Br)cc1)Cc1cc(-c2ccccc2Cl)on1 (configuration not stated) | 60% | – |
| Cc1ccc(-c2cc(CN(Cc3cccc([N+](=O)[O-])c3)C(CCCCN)C(N)=O)no2)cc1 (configuration not stated) | 20% | – |
| Cc1ccc(-c2cc(CN(Cc3cccc(Br)c3)C(CCCCN)C(N)=O)no2)cc1 (configuration not stated) | 40% | – |
| N=C(N)NCCCC(C(N)=O)N(Cc1ccccc1)Cc1cc(-c2ccccc2Cl)on1 (configuration not stated) | 40% | – |
| N#Cc1ccc(CN(Cc2cc(-c3ccccc3)on2)C(CO)C(N)=O)cc1 (configuration not stated) | 30% | – |
| NC(=O)C(CO)N(Cc1ccc(Br)cc1)Cc1cc(-c2ccccc2Cl)on1 (configuration not stated) | 70% | 50% |
| Cc1ccc(-c2cc(CN(Cc3ccc(C#N)cc3)C(CO)C(N)=O)no2)cc1 (configuration not stated) | 60% | 41% |
| CC(C)=CCC(C(N)=O)N(Cc1ccc(C)cc1)Cc1cc(-c2ccccc2)on1 (configuration not stated) | 20% | – |
| N#Cc1ccc(CN(Cc2cc(-c3ccccc3)on2)C(Cc2c[nH]cn2)C(N)=O)cc1 (configuration not stated) | 50% | 80% |
| NC(=O)C(Cc1c[nH]cn1)N(Cc1ccc([N+](=O)[O-])cc1)Cc1cc(-c2ccccc2)on1 (configuration not stated) | 60% | 30% |
| Cc1ccc(CN(Cc2cc(-c3ccccc3)on2)C(CCCCN)C(N)=O)cc1 (configuration not stated) | 20% | – |
| N#Cc1ccc(CN(Cc2cc(-c3ccccc3)on2)C(CCCNC(=N)N)C(N)=O)cc1 (configuration not stated) | 50% | 31% |
| N#Cc1ccc(CN(Cc2cc(-c3ccccc3Cl)on2)C(CCCNC(=N)N)C(N)=O)cc1 (configuration not stated) | 90% | 87.5% |
| NC(=O)C(Cc1c[nH]cn1)N(Cc1cccc(Br)c1)Cc1cc(-c2ccccc2)on1 (configuration not stated) | 40% | – |
| Cc1ccc(-c2cc(CN(Cc3cccc(Br)c3)C(Cc3c[nH]cn3)C(N)=O)no2)cc1 (configuration not stated) | 10% | – |
| NC(=O)C(CO)N(Cc1ccc(Br)cc1)Cc1cc(-c2ccccc2)on1 (configuration not stated) | 30% | – |
| Cc1ccc(-c2cc(CN(Cc3ccc(C#N)cc3)C(CCCN=C(N)N)C(N)=O)no2)cc1 (configuration not stated) | 40% | – |
| CC(C)=CCC(C(N)=O)N(Cc1cccc(C)c1)Cc1cc(-c2ccc(C)cc2)on1 (configuration not stated) | 60% | – |
| CC(=O)Oc1ccccc1C(=O)O [ASPIRIN] | 40% | 110% |
